Measurements from patent US20110021565A1, “PIPERIDINE DERIVATIVES AS NK3 ANTAGONISTS” (priority 2007, published 2011).
Like-named read-outs stand apart in the source and are kept apart here.

Target: T1, recombinant human NK3 receptor (Homo sapiens, UniProt P29371)
T1 construct: expressed in transfected cells; host or cells: HEK293 cells, transient expression; membrane preparation
T1 sequence (P29371 1-465): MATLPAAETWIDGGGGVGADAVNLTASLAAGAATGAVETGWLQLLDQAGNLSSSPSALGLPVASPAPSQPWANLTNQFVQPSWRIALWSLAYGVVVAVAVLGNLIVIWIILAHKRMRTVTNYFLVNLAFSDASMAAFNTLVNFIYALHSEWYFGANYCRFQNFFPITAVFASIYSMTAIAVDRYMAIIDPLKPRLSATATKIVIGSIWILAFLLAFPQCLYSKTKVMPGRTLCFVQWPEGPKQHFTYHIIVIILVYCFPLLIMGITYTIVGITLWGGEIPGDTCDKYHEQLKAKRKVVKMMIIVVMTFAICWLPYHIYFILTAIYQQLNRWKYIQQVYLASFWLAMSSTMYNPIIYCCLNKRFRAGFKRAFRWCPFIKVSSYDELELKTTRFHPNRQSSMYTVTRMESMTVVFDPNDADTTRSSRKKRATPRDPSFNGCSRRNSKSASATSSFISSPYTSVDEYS
Experiment: [3H]SR142801 competition binding assay
How it was run: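 Ki derived by Cheng-Prusoff from Hill-fitted IC50 curves, duplicates, 10 μM SB222200 defining nonspecific binding. Radioligand used at KD concentration against compound at 0.0003-10 μM; transiently transfected HEK293 membranes, 5 μg/well, 75 min room temperature, Tris-HCl/MnCl2/phosphoramidon/BSA pH 7.4. Filter-bound counts read by scintillation.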

[1] = [3H]SR142801, membranes of HEK293 cells transiently expressing recombinant human NK3 receptor, read-out: hNK3 Ki
[2] = representative compounds, [3H]SR142801, HEK293 membranes, human NK3 receptor, read-out: Ki NK3 h

Row | Compound | Ki [1] [nM] | Ki [2] [nM]
1 | CC(=O)N(C)C1CCN(CCC(C)(C(=O)N(C)Cc2ccc(C(F)(F)F)cc2)c2ccc(Cl)c(Cl)c2)CC1 (stereo not shown) [Example 106, 4-[4-(Acetyl-methyl-amino)-piperidin-1-yl]-2-(3,4-dichloro-phenyl)-2,N-dimethyl-N-(4-trifluoromethyl-benzyl)-butyramide] | 5.1 | 5.1
2 | CN(Cc1ccc(Cl)cc1)C(=O)C(CCN1CCC(N2CCCC2=O)CC1)c1ccc(F)cc1 (stereo not shown) [Example 111, N-(4-Chloro-benzyl)-2-(4-fluoro-phenyl)-N-methyl-4-[4-(2-oxo-pyrrolidin-1-yl)-piperidin-1-yl]-butyramide] | 408 | 
3 | CN(Cc1ccc(Cl)cc1)C(=O)C(CCN1CCC(N2CCCC2=O)CC1)c1ccc(Cl)cc1Cl (stereo not shown) [Example 112, N-(4-Chloro-benzyl)-2-(2,4-dichloro-phenyl)-N-methyl-4-[4-(2-oxo-pyrrolidin-1-yl)-piperidin-1-yl]-butyramide] | 128 | 
4 | COc1ccc(C(CCN2CCC(N3CCCC3=O)CC2)C(=O)N(C)Cc2ccc(Cl)cc2)cc1 (stereo not shown) [Example 113, N-(4-Chloro-benzyl)-2-(4-methoxy-phenyl)-N-methyl-4-[4-(2-oxo-pyrrolidin-1-yl)-piperidin-1-yl]-butyramide] | 775 | 
5 | CN(Cc1ccc(Cl)cc1)C(=O)C(CCN1CCC(N2CCCC2=O)CC1)c1ccccc1 (stereo not shown) [Example 114, N-(4-Chloro-benzyl)-N-methyl-4-[4-(2-oxo-pyrrolidin-1-yl)-piperidin-1-yl]-2-phenyl-butyramide] | 560 | 
6 | CN(Cc1ccc(Cl)cc1)C(=O)C(CCN1CCC(N2CCCC2=O)CC1)c1ccc(Cl)c(Cl)c1 (stereo not shown) [Example 115, N-(4-Chloro-benzyl)-2-(3,4-dichloro-phenyl)-N-methyl-4-[4-(2-oxo-pyrrolidin-1-yl)-piperidin-1-yl]-butyramide] | 8.1 | 8.1
7 | CN(Cc1ccc(Cl)cc1)C(=O)C(CCN1CCC(N2CCCC2=O)CC1)c1ccc(F)c(F)c1 (stereo not shown) [Example 116, N-(4-Chloro-benzyl)-2-(3,4-difluoro-phenyl)-N-methyl-4-[4-(2-oxo-pyrrolidin-1-yl)-piperidin-1-yl]-butyramide] | 198 | 
8 | CN(Cc1ccc(Cl)cc1)C(=O)C(CCN1CCC(N2CCCC2=O)CC1)c1ccc(Cl)nc1 (stereo not shown) [Example 117, N-(4-Chloro-benzyl)-2-(6-chloro-pyridin-3-yl)-N-methyl-4-[4-(2-oxo-pyrrolidin-1-yl)-piperidin-1-yl]-butyramide] | 387 | 
9 | CC(NC(=O)C(C)(CCN1CCC(N2CCCC2=O)CC1)c1ccc(Cl)c(Cl)c1)c1ccc(F)c(C(F)(F)F)c1 (stereo not shown) [Example 125, 2-(3,4-Dichloro-phenyl)-N-[1-(4-fluoro-3-trifluoromethyl-phenyl)-ethyl]-2-methyl-4-[4-(2-oxo-pyrrolidin-1-yl)-piperidin-1-yl]-butyramide] | 25.4 | 
10 | CC(c1ccc(F)c(C(F)(F)F)c1)N(C)C(=O)C(C)(CCN1CCC(N2CCCC2=O)CC1)c1ccc(Cl)c(Cl)c1 (stereo not shown) [Example 126, 2-(3,4-Dichloro-phenyl)-N-[1-(4-fluoro-3-trifluoromethyl-phenyl)-ethyl]-2,N-dimethyl-4-[4-(2-oxo-pyrrolidin-1-yl)-piperidin-1-yl]-butyramide] | 30.3 | 
11 | CC[C@H](NC(=O)C(C)(CCN1CCC(N2CCCC2=O)CC1)c1ccc(Cl)c(Cl)c1)c1ccccc1 (stereo partly drawn) [Example 127, 2-(3,4-Dichloro-phenyl)-2-methyl-4-[4-(2-oxo-pyrrolidin-1-yl)-piperidin-1-yl]-N-((S)-1-phenyl-propyl)-butyramide] | 5.2 | 5.2
12 | CC[C@@H](NC(=O)C(C)(CCN1CCC(N2CCCC2=O)CC1)c1ccc(Cl)c(Cl)c1)c1ccccc1 (stereo partly drawn) [Example 128, 2-(3,4-Dichloro-phenyl)-2-methyl-4-[4-(2-oxo-pyrrolidin-1-yl)-piperidin-1-yl]-N-((R)-1-phenyl-propyl)-butyramide] | 90.2 | 
13 | CC(CCN1CCC(N2CCCC2=O)CC1)(C(=O)NCc1ccc(F)c(C(F)(F)F)c1)c1ccc(Cl)c(Cl)c1 (stereo not shown) [Example 131, 2-(3,4-Dichloro-phenyl)-N-(4-fluoro-3-trifluoromethyl-benzyl)-2-methyl-4-[4-(2-oxo-pyrrolidin-1-yl)-piperidin-1-yl]-butyramide] | 3.4 | 3.4
14 | CC(=O)N(C)C1CCN(CCC(C)(C(=O)NC(C)c2ccc(F)c(C(F)(F)F)c2)c2ccc(Cl)c(Cl)c2)CC1 (stereo not shown) [Example 132, 4-[4-(Acetyl-methyl-amino)-piperidin-1-yl]-2-(3,4-dichloro-phenyl)-N-[1-(4-fluoro-3-trifluoromethyl-phenyl)-ethyl]-2-methyl-butyramide] | 46.2 | 

Other lines, results leading:

Row | Ki [1] [nM] | Ki [2] [nM] | Compound
15 | 6.8 | 6.8 | CC(=O)N(C)C1CCN(CCC(C)(C(=O)NCc2ccc(Cl)c(Cl)c2)c2ccc(Cl)c(Cl)c2)CC1 (stereo not shown) [Example 101, 4-[4-(Acetyl-methyl-amino)-piperidin-1-yl]-N-(3,4-dichloro-benzyl)-2-(3,4-dichloro-phenyl)-2-methyl-butyramide]
16 | 5.1 | 5.1 | CC(=O)N(C)C1CCN(CCC(C)(C(=O)N(C)Cc2ccc(Cl)cc2)c2ccc(Cl)c(Cl)c2)CC1 (stereo not shown) [Example 102, 4-[4-(Acetyl-methyl-amino)-piperidin-1-yl]-N-(4-chloro-benzyl)-2-(3,4-dichloro-phenyl)-2,N-dimethyl-butyramide]
17 | 2.2 | 2.2 | CC(=O)N(C)C1CCN(CCC(C)(C(=O)N(C)Cc2ccc(Cl)c(C(F)(F)F)c2)c2ccc(Cl)c(Cl)c2)CC1 (stereo not shown) [Example 103, 4-[4-(Acetyl-methyl-amino)-piperidin-1-yl]-N-(4-chloro-3-trifluoromethyl-benzyl)-2-(3,4-dichloro-phenyl)-2,N-dimethyl-butyramide]
18 | 2.3 | 2.3 | CC(=O)N(C)C1CCN(CCC(C)(C(=O)N(C)Cc2ccc(F)c(C(F)(F)F)c2)c2ccc(Cl)c(Cl)c2)CC1 (stereo not shown) [Example 104, 4-[4-(Acetyl-methyl-amino)-piperidin-1-yl]-2-(3,4-dichloro-phenyl)-N-(4-fluoro-3-trifluoromethyl-benzyl)-2,N-dimethyl-butyramide]
19 | 8.7 | 8.7 | CC(=O)N(C)C1CCN(CCC(C)(C(=O)N(C)Cc2cccc(Cl)c2)c2ccc(Cl)c(Cl)c2)CC1 (stereo not shown) [Example 105, 4-[4-(Acetyl-methyl-amino)-piperidin-1-yl]-N-(3-chloro-benzyl)-2-(3,4-dichloro-phenyl)-2,N-dimethyl-butyramide]
20 | 10.6 |  | CC(=O)N(C)C1CCN(CCC(C)(C(=O)N(C)Cc2ccc(C)cc2)c2ccc(Cl)c(Cl)c2)CC1 (stereo not shown) [Example 107, 4-[4-(Acetyl-methyl-amino)-piperidin-1-yl]-2-(3,4-dichloro-phenyl)-2,N-dimethyl-N-(4-methyl-benzyl)-butyramide]
21 | 12 |  | CC(=O)N(C)C1CCN(CCC(C)(C(=O)N(C)Cc2ccccc2Cl)c2ccc(Cl)c(Cl)c2)CC1 (stereo not shown) [Example 108, 4-[4-(Acetyl-methyl-amino)-piperidin-1-yl]-N-(2-chloro-benzyl)-2-(3,4-dichloro-phenyl)-2,N-dimethyl-butyramide]
22 | 526 |  | CC(=O)N(C)C1CCN(CCC(C)(C(=O)N[C@H](CO)c2ccccc2)c2ccc(Cl)c(Cl)c2)CC1 (stereo partly drawn) [Example 133, 4-[4-(Acetyl-methyl-amino)-piperidin-1-yl]-2-(3,4-dichloro-phenyl)-N-((S)-2-hydroxy-1-phenyl-ethyl)-2-methyl-butyramide]
